From patent US20050106141A1, “Hairless protein-interacting partner complexes and methods thereof for the beautification and/or improvement of mammalian skin” (The Procter & Gamble Company, priority 2003, published 2005)
Like-named read-outs stand apart in the source and are kept apart here.

Tests used:
[1] = biological target: T1, BD-VDR><AD-TRβ interaction (Mus musculus, UniProt P48281); assay: Yeast two-hybrid alpha-galactosidase reporter assay, BD-VDR interaction with AD-TRβ; assay type: cell-based; settings: assay of example 3
T1 construct: expressed in transfected cells; host or cells: yeast
T1 sequence (P48281 1-422): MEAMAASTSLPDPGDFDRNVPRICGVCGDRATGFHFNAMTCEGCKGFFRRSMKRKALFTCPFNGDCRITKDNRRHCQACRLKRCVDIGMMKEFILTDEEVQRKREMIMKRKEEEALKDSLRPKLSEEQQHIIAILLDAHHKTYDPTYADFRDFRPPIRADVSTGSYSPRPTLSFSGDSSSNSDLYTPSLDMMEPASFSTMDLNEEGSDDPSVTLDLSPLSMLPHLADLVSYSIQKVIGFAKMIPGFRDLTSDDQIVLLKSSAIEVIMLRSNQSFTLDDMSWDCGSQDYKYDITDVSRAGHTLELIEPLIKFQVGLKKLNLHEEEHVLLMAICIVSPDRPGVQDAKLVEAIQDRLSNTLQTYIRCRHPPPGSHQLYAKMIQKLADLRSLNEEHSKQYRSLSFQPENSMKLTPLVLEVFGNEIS
T1 sequence (P10828 1-461 partner): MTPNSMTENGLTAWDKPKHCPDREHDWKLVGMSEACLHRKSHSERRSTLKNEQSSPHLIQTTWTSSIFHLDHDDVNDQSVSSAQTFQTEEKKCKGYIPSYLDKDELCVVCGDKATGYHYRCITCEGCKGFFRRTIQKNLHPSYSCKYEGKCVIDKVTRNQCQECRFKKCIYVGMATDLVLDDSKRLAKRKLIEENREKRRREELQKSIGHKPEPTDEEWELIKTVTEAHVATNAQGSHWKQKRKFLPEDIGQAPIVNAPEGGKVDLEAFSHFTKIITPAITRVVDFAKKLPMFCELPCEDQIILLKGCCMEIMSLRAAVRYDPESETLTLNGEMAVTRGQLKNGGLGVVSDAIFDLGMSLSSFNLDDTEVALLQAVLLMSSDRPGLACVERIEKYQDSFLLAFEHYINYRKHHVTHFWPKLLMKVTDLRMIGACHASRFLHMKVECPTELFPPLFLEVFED
Procedure: Increase or decrease in alpha-galactosidase activity of AH109 (BD-HRt><AD-IP) strain grown in Leu, Trp, His TDO in the presence of various test compounds is used to screen for agonists or antagonists of BD-HRt><AD-IP interaction. A diverse library of compounds is screened.
Microtiter plates with TDO media seeded with freshly cultured yeast cells at 0.05 optical density at 650 nm (OD650) are treated with various test compounds at 100-400 uM or vehicle (DMSO) control. Stock solutions of test compounds at 10-20 mM are made in DMSO and tested at 100-400 μM final concentration. The final assay mixture comprising of cells, TDO and compound (or DMSO alone) is adjusted to be 100 ul and the amount of DMSO is maintained at or below 2%. The plates are incubated for 3-4 days without shaking at 25° C. Plates are briefly agitated to obtain uniform suspension of cells prior to addition of assay buffer. […] Plates are briefly agitated to obtain uniform suspension of cells and absorbance at both 650 nM (OD650)ref and 410 nm (OD410)ref are measured. […] For color development 100 ul of 0.1 M sodium carbonate solution is added and after standing for at least 1 minute, OD410exp is measured.

LXR [2] = settings: oral administration, mice; cited from earlier work
LXR [3] = settings: oral administration, hamsters; cited from earlier work

Row | Compound | enhancement of BD-VDR / AD-TRβ interaction [1] | plasma phospholipid levels (LXR [2]) | plasma triglyceride levels (LXR [2]) | plasma phospholipid levels (LXR [3]) | plasma triglyceride levels (LXR [3])
1 | C=C1CC[C@H](O)C/C1=C/C=C1\CCC[C@]2(C)[C@@H]([C@H](C)CCCC(C)(C)O)CC[C@@H]12 [25 HC, 25-hydroxy cholecalciferol] | approximately 2 fold |  |  |  | 
2 | O=S(=O)(c1ccccc1)N(CC(F)(F)F)c1ccc(C(O)(C(F)(F)F)C(F)(F)F)cc1 [T0901317] |  | increased | increased | increased | increased
